Assay results published in patent publication US20180148418A1, “AMIDO-SUBSTITUTED CYCLOHEXANE DERIVATIVES” (Bayer Pharma Aktiengesellschaft, priority 2015, published 2018).

Experiments:
[1] = system: HEK293 cells cotransfected with the FOP control vector; experiment: HEK293 FOP assay (control reporter with non-functional TCF elements); format: cell-based; details: 16 hours
How it was run: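 Stable HEK293 line carrying FOP control reporter (randomized non-functional TCF sites, with pcDNA3), Geneticin-selected, plated 24 h before assay. Stimulated with recombinant human Wnt-3a (2500-5 ng/ml) and compounds 50 μM–15 nM (3.16-fold steps) in CAFTY buffer pH 7.4 with 2 mM Ca2+, 0.01% BSA, run parallel to TOP line.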

[2] = target: T1, TNKS1 (Homo sapiens, UniProt O95271); experiment: TNKS1 Assay B (auto-parsylation, [3H]-NAD+ SPA); format: biochemical; details: 6 nM TNKS1, auto-parsylation, over night at room temperature
T1 construct: purchased BPS Bioscience, San Diego, USA 80579 (TNKS1 Histone Ribosylation Assay Kit)
T1 sequence (O95271 1-1327): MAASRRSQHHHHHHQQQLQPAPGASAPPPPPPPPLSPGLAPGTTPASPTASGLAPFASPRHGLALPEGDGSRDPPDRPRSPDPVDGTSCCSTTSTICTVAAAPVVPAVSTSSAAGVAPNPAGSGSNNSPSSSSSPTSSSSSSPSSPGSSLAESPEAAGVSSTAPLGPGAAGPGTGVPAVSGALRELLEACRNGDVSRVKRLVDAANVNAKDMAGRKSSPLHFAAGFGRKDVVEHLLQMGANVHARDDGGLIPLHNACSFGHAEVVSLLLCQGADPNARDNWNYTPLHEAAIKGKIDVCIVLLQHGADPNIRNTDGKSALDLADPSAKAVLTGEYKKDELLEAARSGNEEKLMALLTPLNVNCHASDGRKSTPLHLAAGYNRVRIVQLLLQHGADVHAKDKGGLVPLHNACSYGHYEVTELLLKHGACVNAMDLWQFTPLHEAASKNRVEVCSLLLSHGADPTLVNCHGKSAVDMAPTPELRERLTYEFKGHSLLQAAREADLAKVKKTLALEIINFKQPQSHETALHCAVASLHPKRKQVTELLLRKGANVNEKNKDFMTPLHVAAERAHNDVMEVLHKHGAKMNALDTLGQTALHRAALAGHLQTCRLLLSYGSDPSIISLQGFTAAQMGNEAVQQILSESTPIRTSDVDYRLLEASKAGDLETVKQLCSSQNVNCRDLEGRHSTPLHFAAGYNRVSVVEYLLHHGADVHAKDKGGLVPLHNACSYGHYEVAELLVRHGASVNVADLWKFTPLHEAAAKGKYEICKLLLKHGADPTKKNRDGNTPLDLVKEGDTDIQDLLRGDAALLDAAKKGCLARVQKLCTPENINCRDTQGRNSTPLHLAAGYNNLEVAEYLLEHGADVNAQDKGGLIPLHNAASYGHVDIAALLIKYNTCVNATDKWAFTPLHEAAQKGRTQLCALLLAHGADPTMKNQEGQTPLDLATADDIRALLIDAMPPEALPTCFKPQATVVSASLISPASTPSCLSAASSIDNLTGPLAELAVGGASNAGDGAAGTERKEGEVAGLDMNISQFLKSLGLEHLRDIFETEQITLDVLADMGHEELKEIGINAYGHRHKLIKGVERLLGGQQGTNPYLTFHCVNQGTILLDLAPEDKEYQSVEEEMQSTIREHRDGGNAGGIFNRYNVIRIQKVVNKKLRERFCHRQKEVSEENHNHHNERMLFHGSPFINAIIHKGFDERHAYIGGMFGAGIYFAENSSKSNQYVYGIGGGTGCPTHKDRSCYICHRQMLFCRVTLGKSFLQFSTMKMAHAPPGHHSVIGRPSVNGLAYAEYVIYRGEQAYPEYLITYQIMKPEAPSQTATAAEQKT
Method: The potency of selected compounds according to the invention was assessed applying a modified in vitro inhibition assay. Here, the TNKS1 catalyzed NAD^+-dependent ribosylation of the enzyme itself (auto-parsylation) was detected using [^3H]-NAD^+ as substrate and applying the scintillation proximity assay (SPA) method to detect tritium-labeled, parsylated TNKS1. The intensity of the readout signal is proportional to the incorporated [^3H]-NAD^+. Inhibition of TNKS1 leads to a decreased incorporation of [^3H]-NAD^+ and consequently to a lower readout signal intensity. The concentration of a test compound which inhibits the enzyme activity by 50% (corresponds to half of the normed readout signal intensity) is reported as IC50.
Protocol Auto-Parsylation Assay
The assay was conducted in a 96 well MTP format with the identical TNKS1 enzyme sample and NAD^+ sample as in the histone ribosylation assay with the following modifications: TNKS1 enzyme sample was diluted with a modified assay buffer (50 mM MES pH 7.0, 1 mM DTT, 0.01% Triton X-100) to a final concentration of 6 nM TNKS1 and 10×NAD^+ solution was diluted with the modified assay buffer (s. above) to a final 0.445×NAD^+ solution doped with 100 Bq/μl [^3H]-NAD^+[Catalog #NET443H050UC, Perkin Elmer, Waltham, Mass., USA]. Substrate solution (10 μl) was incubated with different test compound concentrations (2.5 ul in 10% DMSO in modified assay buffer) or control (2.5 ul 10% DMSO in modified assay buffer only) and enzyme (10 μl) over night at room temperature. Incorporated tritium was measured after addition of 50 μl SPA beads (1 mg/ml) [Catalog #RPNQ0095 20 mg/ml, Perkin Elmer, Waltham, Mass., USA; diluted 1:10 with Dulbecco's phosphate buffered saline, PBS Catalog #D8537, Sigma-Aldrich, Steinheim, Germany] and detection of the photon emission with a beta count plate reader [Wallac MicroBeta®, Perkin Elmer, Waltham, Mass., USA].

Row | IC50 [2] | SMILES | IC50 ([1]; Homo sapiens) | IC50 [1]
1 | 37 nM | COCC(C)NC(=O)c1nc[nH]c1C(=O)N[C@H]1CC[C@@]2(CCN(c3ccc(F)cc3Cl)C2=O)CC1 (mixture of isomers) [Example 164, N^5-[(trans)-2-(2-chloro-4-fluorophenyl)-1-oxo-2-azaspiro[4.5]dec-8-yl]-N^4-(1-methoxypropan-2-yl)-1H-imidazole-4,5-dicarboxamide] | ≥ 50000 nM | –
2 | 10 nM | CNC(=O)c1nc[nH]c1C(=O)N[C@H]1CC[C@H](C(=O)Nc2cc(F)c(F)cc2Cl)CC1 [Example 3, N^5-{trans-4-[(2-chloro-4,5-difluorophenyl)carbamoyl]cyclohexyl}-N^4-methyl-1H-imidazole-4,5-dicarboxamide] | ≥ 50000 nM | –
3 | 2.2 nM | O=C(NCCN1CCCCC1)c1nc[nH]c1C(=O)N[C@H]1CC[C@H](C(=O)Nc2cc(F)c(F)cc2Cl)CC1 [Example 4, N^5-{trans-4-[(2-chloro-4,5-difluorophenyl)carbamoyl]cyclohexyl}-N^4-[2-(piperidin-1-yl)ethyl]-1H-imidazole-4,5-dicarboxamide] | ≥ 50000 nM | –
4 | 150 nM | CNC(=O)c1nc[nH]c1C(=O)N[C@H]1CC[C@H](C(=O)Nc2cc(OC)c(OC)cc2Cl)CC1 [Example 5, N^5-{trans-4-[(2-chloro-4,5-dimethoxyphenyl)carbamoyl]cyclohexyl}-N^4-methyl-1H-imidazole-4,5-dicarboxamide] | ≥ 50000 nM | –
5 | 77 nM | CNC(=O)c1nc[nH]c1C(=O)N[C@H]1CC[C@H](C(=O)Nc2c(F)cc(F)cc2Cl)CC1 [Example 6, N^5-{trans-4-[(2-chloro-4,6-difluorophenyl)carbamoyl]cyclohexyl}-N^4-methyl-1H-imidazole-4,5-dicarboxamide] | ≥ 50000 nM | –
6 | 24 nM | CNC(=O)c1nc[nH]c1C(=O)N[C@H]1CC[C@H](C(=O)Nc2ccc(F)cc2Br)CC1 [Example 7, N^5-{trans-4-[(2-bromo-4-fluorophenyl)carbamoyl]cyclohexyl}-N^4-methyl-1H-imidazole-4,5-dicarboxamide] | ≥ 50000 nM | –
7 | 4100 nM | CNC(=O)c1nc[nH]c1C(=O)N[C@H]1CC[C@H](C(=O)Nc2ccc(F)cc2)CC1 [Example 8, N^5-{trans-4-[(4-fluorophenyl)carbamoyl]cyclohexyl}-N^4-methyl-1H-imidazole-4,5-dicarboxamide] | ≥ 50000 nM | –
8 | 85 nM | CNC(=O)c1nc[nH]c1C(=O)N[C@H]1CC[C@H](C(=O)Nc2ccc(C)cc2Cl)CC1 [Example 9, N^5-{trans-4-[(2-chloro-4-methylphenyl)carbamoyl]cyclohexyl}-N^4-methyl-1H-imidazole-4,5-dicarboxamide] | ≥ 50000 nM | –

Row | SMILES | IC50 [2] | IC50 ([1]; Homo sapiens) | IC50 [1]
9 | Cc1c(C(C)N(C)C)cnc2c(C(=O)N[C@H]3CC[C@H](C(=O)Nc4ccc(F)cc4Cl)CC3)cnn12 (single isomer, unassigned) [Example 56, N-{trans-4-[(2-chloro-4-fluorophenyl)carbamoyl]cyclohexyl}-6-[1-(dimethylamino)ethyl]-7-methylpyrazolo[1,5-a]pyrimidine-3-carboxamide] | 840 nM | ≥ 50000 nM | –
10 | Cc1c(C(C)N(C)C)cnc2c(C(=O)N[C@H]3CC[C@H](C(=O)Nc4ccc(F)cc4Cl)CC3)cnn12 (single isomer, unassigned) [Example 57, N-{trans-4-[(2-chloro-4-fluorophenyl)carbamoyl]cyclohexyl}-6-[1-(dimethylamino)ethyl]-7-methylpyrazolo[1,5-a]pyrimidine-3-carboxamide] | 440 nM | – | ≥ 50000 nM
11 | CNC(=O)c1[nH]cnc1C(=O)NC1CCC(C(=O)Nc2ccc(F)cc2Cl)CC1OC (stereo not drawn) [Example 36, N^4-{(1α,2β,4β)-4-[(2-chloro-4-fluorophenyl)carbamoyl]-2-methoxycyclohexyl}-N^5-methyl-1H-imidazole-4,5-dicarboxamide] | > 10000 nM | – | ≥ 50000 nM
